In the assay the test system is CEM cells HIV-1 protection, formazan growth assay. The experiment in a line: NCI AIDS Antiviral Assay. The conditions noted are these: for IC50: measured here: growth of uninfected CEM cells. A digest of the protocol: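 Protection of CEM cells against HIV-1 was scored from cell growth (soluble formazan) across five concentrations, with parallel uninfected cells. Lack of protection may reflect toxicity.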

This passage reports outcome, EC50 and IC50 results from PubChem BioAssay AID179 (DTP/NCI, 2004).

The structures appear in SMILES notation. The source made the active and inactive calls.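 The calls were made as follows: active = compounds giving half or more protection of infected cells from virus-caused growth loss, again on retest; inactive = the rest.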 Bounds are passed on as bounds.

For `c1cc2c(s1)CCC/C2=N\N=C1/CCCc2sccc21`, the outcome was inactive.

The term EC50 denotes the midpoint of the concentration-response curve. One may read the IC50 as the point on the concentration scale where inhibition reaches its midpoint. A high value points to weaker potency in that assay. Regarding `O=C(C[n+]1ccccc1)N/N=C(\Cc1nc2ccc([N+](=O)[O-])cc2[nH]c1=O)C(=O)Nc1cc(Cl)c(Cl)cc1Cl`, the EC50 is above 79.4 µM and the 50% inhibitory concentration (IC50) amounted to 66.1 µM.

As for `C=C1CC(CNc2cc(Cl)nc(N)n2)C1`, the EC50 was above 200 µM and the 50% inhibitory concentration (IC50) is 55 µM.

In the case of `CC1(C)OCC(C(O)C2OC(C)(C)OC2C=O)O1` (configuration not stated), the EC50 was above 200 µM and the IC50 was above 200 µM.

For the molecule `S=C(/C=C1\SC(=Nc2ccccc2)C(=Nc2ccccc2)N1c1ccccc1)Nc1ccccc1`, the EC50 is above 200 µM and the IC50 is above 200 µM.

Consider `Cc1ccc2[nH]c3nc4cc(C)c(C)cc4nc3c2c1`, for which the EC50 was above 7.24 µM and the concentration for half-maximal inhibition (IC50) was above 7.24 µM.

Consider `CCOC(NC(=O)CC)(C(F)(F)F)C(F)(F)F`, for which the outcome was inactive.

`C[C@@]12[C@H]3CC[C@@H]1[C@H](O)C(=O)N2CC3`: the EC50 is above 200 µM and the IC50 is above 200 µM.

Regarding `c1ccc(-c2nnc(-c3ccccn3)c3c2C[C@@H]2C[C@@H]4Cc5c(-c6ccccn6)nnc(-c6ccccn6)c5[C@@H]4[C@H]32)nc1`, the EC50 was above 200 µM and the IC50 is above 200 µM.

With `O=C1CCSSCCC(=O)NCCN1`, the EC50 is above 22.4 µM and the IC50 was above 22.4 µM.

For the molecule `O=[N+]([O-])c1cnc(-c2ccc(F)cc2)n1CCO`, the EC50 is above 200 µM and the IC50 was above 200 µM.

For `N#C/C(=C\c1ccc(O)c(O)c1)C(=O)NCN1CCN(C(=O)/C(C#N)=C/c2ccc(O)c(O)c2)CC1`, the EC50 is above 200 µM and the IC50 amounted to 19.1 µM.

On to `CC(C)(C)c1cc2c(OC/C=C/c3ccccc3)c(c1)Cc1cc(C(C#N)(OC/C=C/c3ccccc3)OC/C=C/c3ccccc3)cc(c1OC/C=C\c1ccccc1)Cc1cc(C(C)(C)C)cc(c1OC/C=C/c1ccccc1)Cc1cc(C(C#N)(OC/C=C\c3ccccc3)OC/C=C/c3ccccc3)cc(c1OC/C=C\c1ccccc1)C2` (configuration not stated), for which the EC50 is above 100 µM and the IC50 is above 100 µM.

For the molecule `CCCN(CCC)C(=O)COc1cc2c(O)c3c(O)c(C)c4c(c13)C(=O)C(C)(O/C=C/C(OC)C(C)C(OC(C)=O)C(C)C(O)C(C)C(O)C(C)/C=C/C=C(\C)C(=O)N2)O4` (configuration not stated), the result was inactive.

Take `O=C1CC2CCC(C1)S2`: the EC50 was above 200 µM and the IC50 is above 200 µM.

With `CN(C)/N=N/c1nc[nH]c1C(N)=O`, the EC50 was above 74.1 µM and the concentration for half-maximal inhibition (IC50) turned out to be 4.9 µM.

`CC1=C[P+](CCc2ccccc2)(CCc2ccccc2)C=C1C`: the result was inactive.

Take `O=C(CSc1nc(-c2ccccc2)c(-c2ccccc2)[nH]1)N/N=C/c1ccc(Cl)cc1`: the EC50 was above 20.9 µM and the IC50 was 12 µM.

Turning to `O=c1cc(-c2ccccc2)oc2ccc(Oc3nnnn3-c3ccccc3)cc12`, the EC50 is above 200 µM and the half-inhibitory concentration (IC50) is above 200 µM.

`Cc1c(/C=N/NC(=S)Nc2ccc(Cl)cc2)c(=O)n(-c2ccccc2)n1C`: the EC50 was above 200 µM and the half-inhibitory concentration (IC50) was above 200 µM.

`Cc1ccc(NC(=O)/C(CC2N=c3c(ccc4c(O)c5ccccc5c(O)c34)=NC2O)=N/NC(C)(C)C)cc1` (configuration not stated): the EC50 was above 10 µM and the 50% inhibitory concentration (IC50) is above 10 µM.

For the molecule `CCOC(=O)C(C(=O)OCC)C(C(=O)OCC)(C(=O)OCC)C(C(=O)OCC)C(=O)OCC`, the outcome was inactive.

Take `O=C(NCCCNCCCNC(=O)c1cc(-c2ccccc2)nc2ccccc12)c1cc(-c2ccccc2)nc2ccccc12`: the EC50 was above 200 µM and the IC50 was 2.82 µM.

For `Cc1cc(NS(=O)(=O)c2ccc(Nc3c4ccccc4nc4c(C(=O)NCCO)cccc34)cc2)no1`, the EC50 was above 200 µM and the 50% inhibitory concentration (IC50) is 12.6 µM.

In the case of `C[N+]1(CCNP(=S)(NCC[N+]2(C)Cc3c(ccc4c3OCO4)C3C2c2cc4c(cc2C[C@@H]3O)OCO4)NCC[N+]2(C)Cc3c(ccc4c3OCO4)C3C2c2cc4c(cc2C[C@@H]3O)OCO4)Cc2c(ccc3c2OCO3)C2C1c1cc3c(cc1C[C@H]2O)OCO3` (some centres not stated), the EC50 was above 380 µM and the IC50 was determined as 4.68 µM.

In the case of `O=S1(=O)c2ccccc2N(c2ccccc2)C2=NCCN21`, the EC50 is above 120 µM and the IC50 was above 120 µM.

As to `COc1c2c(c(Cl)c3ccc(=O)oc13)CCO2`, the EC50 is above 70.8 µM and the IC50 was above 70.8 µM.

With `c1cc(CN2CCNCCNCCNCC2)cc(CN2CCNCCNCCNCC2)c1`, the EC50 is above 200 µM and the IC50 is above 200 µM.

Consider `C[C@H]1CC[C@@H]2[C@@H](C)C[C@H]3[C@@H]4C(C)(C)OC(=O)[C@]4(C)C(=O)[C@@]23C1=O`, for which the EC50 was above 200 µM and the IC50 came to 77.6 µM.

As to `COc1ccc(NS(=O)CCCc2ccccc2)cc1` (configuration not stated), the EC50 is above 200 µM and the 50% inhibitory concentration (IC50) was 16.6 µM.

In the case of `CNC(=O)N(C1CCCCC1)C1CCCCC1`, the EC50 was above 200 µM and the concentration for half-maximal inhibition (IC50) was found to be 110 µM.

Consider `O=C1CCCC2C3CC(CN12)C1CC(O)CCN1C3` (configuration not stated), for which the EC50 was above 200 µM and the IC50 is above 200 µM.

For `CC(=NNC(=S)Nc1ccccc1C)c1cccc(C(C)=NNC(=S)Nc2ccccc2C)n1`, the EC50 was above 200 µM and the concentration for half-maximal inhibition (IC50) was found to be 110 µM.

As for `O/N=C1\CC2(N3CCOCC3)CCC1(Cc1ccccc1)CC2`, the EC50 is above 100 µM and the half-maximal inhibitory concentration (IC50) was above 100 µM.

Consider `C=C(Nc1nc2ccc(C)cc2s1)C(=O)C(CC)C(=O)C(CC)CC1C(=O)NC(=O)NC1=O` (configuration not stated), for which the EC50 was above 39.8 µM and the concentration for half-maximal inhibition (IC50) was above 39.8 µM.

For the molecule `c1ccc2c(C3NCCc4[nH]cnc43)cccc2c1` (configuration not stated), the EC50 is above 525 µM and the IC50 is above 525 µM.

In the case of `COc1cc(O)c(C(=O)CC(C)=O)c(OC)c1`, the EC50 is above 398 µM and the 50% inhibitory concentration (IC50) amounted to 174 µM.

With `O=C1c2ccccc2-c2c1c1ccccc1c(=O)n2Cc1ccco1`, the EC50 was above 11.5 µM and the concentration for half-maximal inhibition (IC50) is above 11.5 µM.

Turning to `CCOC(=O)c1c(N2CCCC2)[nH]c(=O)c(C(c2ccco2)c2c(O)c(C(=O)OCC)c(N3CCCC3)[nH]c2=O)c1O`, the EC50 was above 200 µM and the IC50 was 117 µM.

`C[C@H]1Oc2c3c(c4ccc(=O)oc4c2C(=O)[C@@H]1C)OC(C)(C)C=C3`: the EC50 is above 200 µM and the IC50 was above 200 µM.

On to `CCOP(=O)(CN1CCNCCNCC1)OCC`, for which the EC50 is above 200 µM and the IC50 was above 200 µM.

For the molecule `COc1ccc(/C=C/C(C(=O)O)C(=O)O)cc1`, the EC50 is above 398 µM and the 50% inhibitory concentration (IC50) came out at 56.2 µM.

Consider `O=C(OCc1ccccc1)N1CCNCCNCCN(C(=O)OCc2ccccc2)CCNCC1`, for which the EC50 is above 200 µM and the IC50 is 112 µM.

Regarding `Cc1ccc(C(=O)NC2C(=O)NC(C(C)C)C(=O)N3CCCC3C(=O)N(C)CC(=O)N(C)C(C(C)C)C(=O)OC2C)c2c1Oc1c(c(C(=O)NC3C(=O)NC(C(C)C)C(=O)N4CCCC4C(=O)N(C)CC(=O)N(C)C(C(C)C)C(=O)OC3C)c3nc(-c4ccccc4)c(=O)oc3c1C)N2` (configuration not stated), the EC50 is above 19.1 µM and the IC50 was 0.00794 µM.

In the case of `CCc1cccc(CC)c1NC(=O)C(C#N)C1=C(Cl)C(=O)c2ccccc2C1=O` (configuration not stated), the EC50 is above 17.8 µM and the IC50 was 11.5 µM.

As for `COC1CC(C)(NC(C)=O)C2OC(c3ccccc3)OCC2O1` (configuration not stated), the EC50 is above 200 µM and the IC50 is above 200 µM.
